Results reported in PubChem BioAssay AID248 (DTP/NCI, 2004).
Values joined by “and” are separate entries in the source; they are usually repeats but may differ in a detail not shown here. Equal entries are not always repeated. Toxic doses and inconclusive results are not listed. Cut-off read from the data, not from the text of the source: active = T/C of 150% or more; inactive = T/C below 125%.

System: L1210 leukemia ip in BDF1 mice, survival T/C
Experiment: NCI In Vivo Anticancer Drug Screen. Data for tumor model L1210 Leukemia (intraperitoneal) in B6D2F1 (BDF1) mice
Conditions: endpoint: mean survival time, higher = longer survival
Summary of the method: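 In this screen, tumor-bearing mice given compound are compared to those given vehicle, and their survival values are reported as a treated-to-control quotient.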

[1] = dose: 100.0 mg/kg/injection, schedule: Q04DX003 (ip), vehicle: saline with Tween-80
[2] = dose: 100.0 mg/kg/injection, schedule: Q01DX009 (ip), vehicle: saline with Tween-80
[3] = dose: 200.0 mg/kg/injection, schedule: Q01DX009 (ip), vehicle: saline with Tween-80
[4] = dose: 200.0 mg/kg/injection, schedule: Q04DX003 (ip), vehicle: Klucel (hydroxypropylcellulose) (HPC)
[5] = dose: 400.0 mg/kg/injection, schedule: Q04DX003 (ip), vehicle: Klucel (hydroxypropylcellulose) (HPC)
[6] = dose: 200.0 mg/kg/injection, schedule: Q04DX003 (ip), vehicle: saline with Tween-80
[7] = dose: 400.0 mg/kg/injection, schedule: Q04DX003 (ip), vehicle: saline with Tween-80
[8] = dose: 50.0 mg/kg/injection, schedule: Q01DX009 (ip), vehicle: saline with Tween-80
[9] = dose: 100.0 mg/kg/injection, schedule: Q01DX001 (ip), vehicle: carboxymethylcellulose (CMC)
[10] = dose: 200.0 mg/kg/injection, schedule: Q01DX001 (ip), vehicle: carboxymethylcellulose (CMC)

Measured: T/C

CCOC(=O)C12CCC(C(=O)O)(CC1)CC2
inactive: dose: 75.0 mg/kg/injection, schedule: Q04DX002 (ip), vehicle: Klucel (hydroxypropylcellulose) (HPC) 100 % of control | dose: 150.0 mg/kg/injection, schedule: Q04DX002 (ip), vehicle: Klucel (hydroxypropylcellulose) (HPC) 106 % of control | dose: 300.0 mg/kg/injection, schedule: Q04DX002 (ip), vehicle: Klucel (hydroxypropylcellulose) (HPC) 110 % of control

O=S(=O)(O)CCNC(=S)C(=S)NCCS(=O)(=O)O
inactive: dose: 100.0 mg/kg/injection, schedule: Q04DX002 (ip), vehicle: saline 101 % of control | dose: 200.0 mg/kg/injection, schedule: Q04DX002 (ip), vehicle: saline 101 % of control | dose: 400.0 mg/kg/injection, schedule: Q04DX002 (ip), vehicle: saline 101 % of control

c1cc[c]([Sn]([S]c2ncnc3c2nc[n]3[Sn]([c]2ccccc2)([c]2ccccc2)[c]2ccccc2)([c]2ccccc2)[c]2ccccc2)cc1.c1cc[c]([Sn]([S]c2ncnc3nc[nH]c23)([c]2ccccc2)[c]2ccccc2)cc1
inactive: dose: 5.0 mg/kg/injection, schedule: Q01DX001 (ip), vehicle: other 122 % of control | dose: 10.0 mg/kg/injection, schedule: Q01DX001 (ip), vehicle: other 100 % of control | dose: 20.0 mg/kg/injection, schedule: Q01DX001 (ip), vehicle: other 100 % of control

O=c1[nH]c(=O)n(O)c2nc[nH]c12
inactive: [1] 92 % of control

CCC(=O)Nc1cccc(Cl)c1
inactive: [2] 97 % of control | dose: 100.0 mg/kg/injection, schedule: Q04DX003 (ip), vehicle: Klucel (hydroxypropylcellulose) (HPC) 97 % of control | [3] 103 % of control | [4] 97 % of control | [5] 108 % of control

Clc1nc2ccccc2nc1Cl
inactive: dose: 12.5 mg/kg/injection, schedule: Q04DX003 (sc), vehicle: olive oil, sesame oil, peanut oil 98 % of control | dose: 25.0 mg/kg/injection, schedule: Q04DX003 (sc), vehicle: olive oil, sesame oil, peanut oil 109 % of control

CCOC12c3c4cccc3C(=O)c3cccc(c31)C(=O)c1cccc(c12)C4=O
inactive: [2] 103 % of control | [1] 105 % of control | [3] 111 % of control | [6] 93 % of control | dose: 400.0 mg/kg/injection, schedule: Q01DX009 (ip), vehicle: saline with Tween-80 109 % of control | [7] 96 % of control

Nc1ccc(NC(=O)Nc2ccccc2)cc1
inactive: dose: 100.0 mg/kg/injection, schedule: Q04DX002 (ip), vehicle: Klucel (hydroxypropylcellulose) (HPC) 101 % of control | dose: 200.0 mg/kg/injection, schedule: Q04DX002 (ip), vehicle: Klucel (hydroxypropylcellulose) (HPC) 90 % of control | dose: 400.0 mg/kg/injection, schedule: Q04DX002 (ip), vehicle: Klucel (hydroxypropylcellulose) (HPC) 101 % of control

Cc1nc2c(nc1C)C(=O)C1C3c4ccccc4C(c4ccccc43)C1C2=O (stereo not drawn)
inactive: [4] 93 % of control | [5] 93 % of control

CC(C)(C)c1cccc(C(C)(C)C)c1O
inactive: dose: 100.0 mg/kg/injection, schedule: Q04DX003 (ip), vehicle: saline 102 % of control | dose: 200.0 mg/kg/injection, schedule: Q04DX003 (ip), vehicle: saline 98 % of control | dose: 400.0 mg/kg/injection, schedule: Q04DX003 (ip), vehicle: saline 90 % of control

CCC(=O)C(C)(C)c1ccccc1 (tested in a mixture with another compound)
inactive: [8] 95 % of control | [2] 88 % of control | [3] 96 % of control

CCCCCCC(=O)N(CC)C(=NCC)c1ccc(NC(=O)c2ccc(C(=O)Nc3ccc(C(=NCC)N(CC)C(=O)CCCCCC)cc3)cc2)cc1
inactive: dose: 3.75 mg/kg/injection, schedule: Q01DX015 (ip), vehicle: methylcellulose (MC) 98 % of control | dose: 7.5 mg/kg/injection, schedule: Q01DX015 (ip), vehicle: methylcellulose (MC) 101 % of control | dose: 15.0 mg/kg/injection, schedule: Q01DX015 (ip), vehicle: methylcellulose (MC) 98 % of control | dose: 30.0 mg/kg/injection, schedule: Q01DX015 (ip), vehicle: methylcellulose (MC) 90 % of control | dose: 62.0 mg/kg/injection, schedule: Q01DX015 (ip), vehicle: methylcellulose (MC) 93 % of control | dose: 125.0 mg/kg/injection, schedule: Q01DX015 (ip), vehicle: methylcellulose (MC) 90 % of control | dose: 250.0 mg/kg/injection, schedule: Q01DX015 (ip), vehicle: methylcellulose (MC) 87 % of control | dose: 500.0 mg/kg/injection, schedule: Q01DX015 (ip), vehicle: methylcellulose (MC) 86 % of control

O=C(/C(=C/c1cccc(Cl)c1)c1ccccc1)c1ccc(O)cc1
inactive: [9] 101 % of control | [10] 90 % of control

CC(=O)Nc1ccc(S(=O)(=O)N=S(c2ccccc2)c2ccccc2)cc1
inactive: dose: 50.0 mg/kg/injection, schedule: Q01DX001 (ip), vehicle: carboxymethylcellulose (CMC) 101 % of control | [9] 101 % of control | [10] 94 % of control | dose: 400.0 mg/kg/injection, schedule: Q01DX001 (ip), vehicle: carboxymethylcellulose (CMC) 97 % of control

O=C(O)CCNC(=S)Nc1ccc(S(=O)(=O)c2ccc(NC(=S)NCCC(=O)O)cc2)cc1
inactive: dose: 100.0 mg/kg/injection, schedule: Q01DX001 (ip), vehicle: saline 104 % of control | dose: 200.0 mg/kg/injection, schedule: Q01DX001 (ip), vehicle: saline 98 % of control | dose: 400.0 mg/kg/injection, schedule: Q01DX001 (ip), vehicle: saline 102 % of control

CCCCCCCCCCCCCCCC(=O)OCCCCCCCCCCCCC
inactive: [1] 95 % of control | [6] 90 % of control | [7] 86 % of control

O=C1C2=C(C(=O)c3ccccc31)C(=O)C1CC=CCC1C2=O (stereo not drawn)
inactive: dose: 0.25 mg/kg/injection, schedule: Q04DX003 (ip), vehicle: saline with Tween-80 102 % of control | dose: 0.5 mg/kg/injection, schedule: Q04DX003 (ip), vehicle: saline with Tween-80 104 % of control | dose: 1.0 mg/kg/injection, schedule: Q04DX003 (ip), vehicle: saline with Tween-80 98 % of control | dose: 2.0 mg/kg/injection, schedule: Q04DX003 (ip), vehicle: saline with Tween-80 96 % of control | dose: 4.0 mg/kg/injection, schedule: Q04DX003 (ip), vehicle: saline with Tween-80 110 % of control | dose: 8.0 mg/kg/injection, schedule: Q04DX003 (ip), vehicle: saline with Tween-80 100 % of control and 105 % of control | dose: 16.0 mg/kg/injection, schedule: Q04DX003 (ip), vehicle: saline with Tween-80 102 % of control and 103 % of control | dose: 25.0 mg/kg/injection, schedule: Q01DX009 (ip), vehicle: saline with Tween-80 106 % of control | dose: 32.0 mg/kg/injection, schedule: Q04DX003 (ip), vehicle: saline with Tween-80 103 % of control | [8] 106 % of control | dose: 64.0 mg/kg/injection, schedule: Q04DX003 (ip), vehicle: saline with Tween-80 97 % of control and 105 % of control | [2] 110 % of control | dose: 128.0 mg/kg/injection, schedule: Q04DX003 (ip), vehicle: saline with Tween-80 105 % of control | [3] 101 % of control | dose: 256.0 mg/kg/injection, schedule: Q04DX003 (ip), vehicle: saline with Tween-80 94 % of control

CCOC(CCC#N)c1ccccc1 (stereo not drawn)
inactive: [1] 95 % of control | dose: 125.0 mg/kg/injection, schedule: Q01DX009 (ip), vehicle: saline with Tween-80 113 % of control | [6] 98 % of control | dose: 235.0 mg/kg/injection, schedule: Q01DX009 (ip), vehicle: saline with Tween-80 96 % of control | [7] 92 % of control

S=C=Nc1cccc(Cl)c1
inactive: dose: 75.0 mg/kg/injection, schedule: Q01DX001 (ip), vehicle: saline 100 % of control | dose: 150.0 mg/kg/injection, schedule: Q01DX001 (ip), vehicle: saline 96 % of control

CCc1c(Nc2ccc(C)cc2)[nH]c(N)nc1=S
inactive: dose: 200.0 mg/kg/injection, schedule: Q01DX Z (ip), vehicle: methylcellulose (MC) 89 % of control

N#CCCSCCSCCC#N
inactive: dose: 100.0 mg/kg/injection, schedule: Q01DX009 (ip), vehicle: Klucel (hydroxypropylcellulose) (HPC) 95 % of control | dose: 200.0 mg/kg/injection, schedule: Q01DX009 (ip), vehicle: Klucel (hydroxypropylcellulose) (HPC) 97 % of control | dose: 400.0 mg/kg/injection, schedule: Q01DX009 (ip), vehicle: Klucel (hydroxypropylcellulose) (HPC) 101 % of control

CCOC(=O)c1c(/N=C/c2cc(Br)ccc2O)sc2c1CCCC2
inactive: dose: 100.0 mg/kg/injection, schedule: Q04DX002 (ip), vehicle: saline with Tween-80 109 % of control | dose: 200.0 mg/kg/injection, schedule: Q04DX002 (ip), vehicle: saline with Tween-80 102 % of control | dose: 400.0 mg/kg/injection, schedule: Q04DX002 (ip), vehicle: saline with Tween-80 98 % of control
